Legend:
[1] = test system: BT474 cells (HER2 expressing cells); test: CellTiter-Glo cell viability assay, BT474; format: cell-based; conditions: PBD compounds, 72 h incubation
Protocol: (§1) PBD compounds and conjugates thereof were evaluated for their antiproliferation properties in tumor cell lines in vitro using CellTiter-Glo® (Promega Corp). Cells were plated in black walled 96-well plate and allowed to adhere overnight at 37° C. in a humidified atmosphere of 5% CO2. BT474, SKBR3, NCI-N87 cells (HER2 expressing cells), JIMT1 cells (HER2 medium expression level cells) and MCF7 cells (HER2 low expressing levels cells) and were plated at a density of 5,000 cells per well. The next day the medium was replaced with 50 μL fresh medium and 50 μL of 2× stocks of PBD compounds or antibody-PBD conjugate were added to appropriate wells, mixed and incubated for 72 h. CellTiter-Glo® reagent was added to the wells at room temperature and the luminescent signal was measured after 10 min using a SpectraMax M5 plate reader (Molecular Devices). Dose response curves were generated using SoftMax Pro software. IC50 values were determined from four-parameter curve fitting.

[2] = test system: NCI-N87 cells (HER2 expressing cells); test: CellTiter-Glo cell viability assay, NCI-N87; format: cell-based; conditions: PBD compounds, 72 h incubation
Protocol: as §1

[3] = test system: SKBR3 cells (HER2 expressing cells); test: CellTiter-Glo cell viability assay, SKBR3; format: cell-based; conditions: PBD compounds, 72 h incubation
Protocol: as §1

[4] = test system: JIMT1 cells (HER2 medium expression level cells); test: CellTiter-Glo cell viability assay, JIMT1; format: cell-based; conditions: PBD compounds, 72 h incubation
Protocol: as §1

[5] = test system: MCF7 cells (HER2 low expressing levels cells); test: CellTiter-Glo cell viability assay, MCF7; format: cell-based; conditions: PBD compounds, 72 h incubation
Protocol: as §1

[6] = Phase I clinical evaluation; cited from earlier work

SMILES	IC50 ([1]; Homo sapiens, BT-474)	IC50 ([2]; Homo sapiens, NCI-N87)	IC50 ([3]; Homo sapiens, SK-BR-3)	IC50 ([4]; Homo sapiens, JIMT-1)	IC50 ([5]; Homo sapiens, MCF7)	IC50 [1]	IC50 [2]	IC50 [3]	IC50 [4]	IC50 [5]	adverse effects noted [6]	maximum tolerated dose [6]
C=C1C[C@H]2C=Nc3cc(OCCCC(=O)Nc4cn(C)c(C(=O)Nc5cc(C(=O)Nc6cc(C(=O)n7ncc8ccc(N)cc87)n(C)c6)n(C)c5)n4)c(OC)cc3C(=O)N2C1 [Compound 28, (S,Z)-N-(5-(5-(6-amino-1H-indazole-1-carbonyl)-1-methyl-1H-pyrrol-3-ylcarbamoyl)-1-methyl-1H-pyrrol-3-yl)-4-(4-(7-methoxy-2-methylene-5-oxo-2,3,5,11a-tetrahydro-1H-benzo[e]pyrrolo[1,2-a][1,4]diazepin-8-yloxy)butanamido)-1-methyl-1H-imidazole-2-carboxamide]	2.9 nM	1.02 nM	0.16 nM	0.6 nM	2.6 nM							
C=C1C[C@H]2C=Nc3cc(OCCCC(=O)Nc4cn(C)c(C(=O)Nc5cc(C(=O)Nc6cc(C(=O)O)n(C)c6)n(C)c5)n4)c(OC)cc3C(=O)N2C1 [Compound 51, (S,Z)-4-(4-(4-(4-(7-methoxy-2-methylene-5-oxo-2,3,5,11a-tetrahydro-1H-benzo[e]pyrrolo[1,2-a][1,4]diazepin-8-yloxy)butanamido)-1-methyl-1H-imidazole-2-carboxamido)-1-methyl-1H-pyrrole-2-carboxamido)-1-methyl-1H-pyrrole-2-carboxylic acid]	300 nM	300 nM	260 nM	300 nM	300 nM							
C=C1C[C@@H]2C=Nc3cc(OCCCC(=O)Nc4cc(C(=O)Nc5cc(C(=O)Nc6cc(C(=O)NCCCO)n(C)c6)n(C)c5)n(C)c4)c(OC)cc3C(=O)N2C1 [Compound 55, (R,Z)-N-(3-hydroxypropyl)-4-(4-(4-(4-(7-methoxy-2-methylene-5-oxo-2,3,5,11a-tetrahydro-1H-benzo[e]pyrrolo[1,2-a][1,4]diazepin-8-yloxy)butanamido)-1-methyl-1H-pyrrole-2-carboxamido)-1-methyl-1H-pyrrole-2-carboxamido)-1-methyl-1H-pyrrole-2-carboxamide]	7.5 nM	5 nM	2.5 nM	2 nM	47 nM							
COc1cc2c(cc1OCCCC(=O)Nc1cc(C(=O)Nc3cc(C(=O)Nc4cc(C(=O)NCCCO)n(C)c4)n(C)c3)n(C)c1)N=C[C@@H]1CCCN1C2=O [Compound 66, (S,Z)-N-(3-hydroxypropyl)-4-(4-(4-(4-(7-methoxy-5-oxo-2,3,5,11a-tetrahydro-1H-benzo[e]pyrrolo[1,2-a][1,4]diazepin-8-yloxy)butanamido)-1-methyl-1H-pyrrole-2-carboxamido)-1-methyl-1H-pyrrole-2-carboxamido)-1-methyl-1H-pyrrole-2-carboxamide]	86 nM	27 nM	16 nM	15 nM	121 nM							
COc1cc2c(cc1OCCCC(=O)Nc1cc(C(=O)Nc3cc(C(=O)Nc4cc(C(=O)NCCCO)n(C)c4)n(C)c3)n(C)c1)N=C[C@@H]1Cc3ccccc3N1C2=O [Compound 69]	4.7 nM	3 nM	1.5 nM	1.5 nM	69 nM							
C=C1C[C@H]2C=Nc3cc(OCCCC(=O)Nc4cn(C)c(C(=O)Nc5cc(C(=O)Nc6cc(C(=O)N7CCc8cc(N)ccc87)n(C)c6)n(C)c5)n4)c(OC)cc3C(=O)N2C1 [Compound 77, (S,Z)-N-(5-(5-(5-aminoindoline-1-carbonyl)-1-methyl-1H-pyrrol-3-ylcarbamoyl)-1-methyl-1H-pyrrol-3-yl)-4-(4-(7-methoxy-2-methylene-5-oxo-2,3,5,11a-tetrahydro-1H-benzo[e]pyrrolo[1,2-a][1,4]diazepin-8-yloxy)butanamido)-1-methyl-1H-imidazole-2-carboxamide]	37.1 nM	6.4 nM	1.4 nM	8.6 nM	14.9 nM							
COc1cc2c(cc1OCCCC(=O)Nc1cn(C)c(C(=O)Nc3cc(C(=O)Nc4cc(C(=O)n5ccc6cc(N)ccc65)n(C)c4)n(C)c3)n1)N=C[C@@H]1Cc3ccccc3N1C2=O [Compound 78, (S)-N-(5-((5-(5-amino-1H-indole-1-carbonyl)-1-methyl-1H-pyrrol-3-yl)carbamoyl)-1-methyl-1H-pyrrol-3-yl)-4-(4-((8-methoxy-6-oxo-12a,13-dihydro-6H-benzo[5,6][1,4]diazepino[1,2-a]indol-9-yl)oxy)butanamido)-1-methyl-1H-imidazole-2-carboxamide]	0.63 nM	0.29 nM	0.06 nM	1.1 nM	1.9 nM							
C=C1C[C@H]2C=Nc3cc(OCCCC(=O)Nc4cn(C)c(C(=O)Nc5cc(C(=O)Nc6cc(C(=O)n7ncc8cc(N)ccc87)n(C)c6)n(C)c5)n4)c(OC)cc3C(=O)N2C1 [Compound 79, (S,Z)-N-(5-(5-(5-amino-1H-indazole-1-carbonyl)-1-methyl-1H-pyrrol-3-ylcarbamoyl)-1-methyl-1H-pyrrol-3-yl)-4-(4-(7-methoxy-2-methylene-5-oxo-2,3,5,11a-tetrahydro-1H-benzo[e]pyrrolo[1,2-a][1,4]diazepin-8-yloxy)butanamido)-1-methyl-1H-imidazole-2-carboxamide]	0.66 nM	0.31 nM	0.09 nM	2.1 nM	2.6 nM							
C=C1C[C@H]2C=Nc3cc(OCCCC(=O)Nc4cn(C)c(C(=O)Nc5cc(C(=O)Nc6cc(C(=O)Nc7ccc8[nH]ccc8c7)n(C)c6)n(C)c5)n4)c(OC)cc3C(=O)N2C1 [Compound 82, (S,Z)-N-(5-(5-(1H-indol-5-ylcarbamoyl)-1-methyl-1H-pyrrol-3-ylcarbamoyl)-1-methyl-1H-pyrrol-3-yl)-4-(4-(7-methoxy-2-methylene-5-oxo-2,3,5,11a-tetrahydro-1H-benzo[e]pyrrolo[1,2-a][1,4]diazepin-8-yloxy)butanamido)-1-methyl-1H-imidazole-2-carboxamide]						32 nM	7.9 nM	3.6 nM	10.8 nM	27 nM		
C=C1C[C@H]2C=Nc3cc(OCCCC(=O)Nc4cn(C)c(C(=O)Nc5cc(C(=O)Nc6cc(C(=O)n7ccc8cc(CN)ccc87)n(C)c6)n(C)c5)n4)c(OC)cc3C(=O)N2C1 [Compound 83, (S,Z)-N-(5-(5-(5-(aminomethyl)-1H-indole-1-carbonyl)-1-methyl-1H-pyrrol-3-ylcarbamoyl)-1-methyl-1H-pyrrol-3-yl)-4-(4-(7-methoxy-2-methylene-5-oxo-2,3,5,11a-tetrahydro-1H-benzo[e]pyrrolo[1,2-a][1,4]diazepin-8-yloxy)butanamido)-1-methyl-1H-imidazole-2-carboxamide]	2.5 nM	0.81 nM	0.18 nM	1.2 nM	2.4 nM							
C=C1C[C@H]2C=Nc3cc(OCCCC(=O)Nc4cn(C)c(C(=O)Nc5cc(C(=O)Nc6cnc7[nH]ccc7c6)n(C)c5)n4)c(OC)cc3C(=O)N2C1 [Compound 84, (S,Z)-N-(5-(1H-pyrrolo[2,3-b]pyridin-5-ylcarbamoyl)-1-methyl-1H-pyrrol-3-yl)-4-(4-(7-methoxy-2-methylene-5-oxo-2,3,5,11a-tetrahydro-1H-benzo[e]pyrrolo[1,2-a][1,4]diazepin-8-yloxy)butanamido)-1-methyl-1H-imidazole-2-carboxamide]	5.4 nM	1.5 nM	0.66 nM	3.6 nM	3.8 nM							
C=C1C[C@H]2C=Nc3cc(OCCCC(=O)Nc4cn(C)c(C(=O)Nc5cc(C(=O)Nc6cc(C(=O)n7ccc8cc(C(=O)OC)cnc87)n(C)c6)n(C)c5)n4)c(OC)cc3C(=O)N2C1 [Compound 85, (S,Z)-methyl 1-(4-(4-(4-(4-(7-methoxy-2-methylene-5-oxo-2,3,5,11a-tetrahydro-1H-benzo[e]pyrrolo[1,2-a][1,4]diazepin-8-yloxy)butanamido)-1-methyl-1H-imidazole-2-carboxamido)-1-methyl-1H-pyrrole-2-carboxamido)-1-methyl-1H-pyrrole-2-carbonyl)-1H-pyrrolo[2,3-b]pyridine-5-carboxylate]	6.3 nM	0.97 nM	0.58 nM	14.2 nM	8 nM							
C=C1C[C@H]2C=Nc3cc(OCCCOc4cc5c(cc4OC)C(=O)N4CC(=C)C[C@H]4C=N5)c(OC)cc3C(=O)N2C1 [SJG-136]											vascular leak syndrome, peripheral edema, liver toxicity and fatigue	45 μg/m^2
